Experimental data from patent publication US10265286B2, “Sequelae of cardiopulmonary bypass-induced pulmonary injury” (Vanderbilt University, priority 2016, dated 2019).

System: human vascular endothelial cells
Assay: Nitric oxide production by cultured human vascular endothelial cells (FIG. 23)
Assay type: cell-based
Method: These agents were administered to cultured human vascular endothelial cells stimulated with acetylcholine. Measurement of nitric oxide was through a Seiver's system of nitrate/nitrites.

## N=C(N)NCCC[C@H](N)C(=O)O [arginine]
Applied directly to endothelial cell, very high concentrations (10 mM)
  NO production: little sign of increased NO production
Cells stimulated with acetylcholine, nitrate/nitrites by Seiver's system
  production of nitric oxide: no effect on the production of nitric oxide
